# Measurements from paper PMC6892409, “Phenotypic proteomic profiling identifies a landscape of targets for circadian clock–modulating compounds” (Life Science Alliance, 2019).
# Read-outs that look alike come from different tables or passages of the source.
# Columns and labels:
# [1] = target: F-box protein 21 (FBX21) (Homo sapiens, UniProt O94952); test: TPP in intact U2OS cells; assay type: binding; settings: vs vehicle
# [2] = target: TNS1 (Homo sapiens, UniProt Q9HBL0); test: TPP in intact U2OS cells; assay type: binding; settings: vs vehicle
# TNS1, sequence (Q9HBL0 whole entry): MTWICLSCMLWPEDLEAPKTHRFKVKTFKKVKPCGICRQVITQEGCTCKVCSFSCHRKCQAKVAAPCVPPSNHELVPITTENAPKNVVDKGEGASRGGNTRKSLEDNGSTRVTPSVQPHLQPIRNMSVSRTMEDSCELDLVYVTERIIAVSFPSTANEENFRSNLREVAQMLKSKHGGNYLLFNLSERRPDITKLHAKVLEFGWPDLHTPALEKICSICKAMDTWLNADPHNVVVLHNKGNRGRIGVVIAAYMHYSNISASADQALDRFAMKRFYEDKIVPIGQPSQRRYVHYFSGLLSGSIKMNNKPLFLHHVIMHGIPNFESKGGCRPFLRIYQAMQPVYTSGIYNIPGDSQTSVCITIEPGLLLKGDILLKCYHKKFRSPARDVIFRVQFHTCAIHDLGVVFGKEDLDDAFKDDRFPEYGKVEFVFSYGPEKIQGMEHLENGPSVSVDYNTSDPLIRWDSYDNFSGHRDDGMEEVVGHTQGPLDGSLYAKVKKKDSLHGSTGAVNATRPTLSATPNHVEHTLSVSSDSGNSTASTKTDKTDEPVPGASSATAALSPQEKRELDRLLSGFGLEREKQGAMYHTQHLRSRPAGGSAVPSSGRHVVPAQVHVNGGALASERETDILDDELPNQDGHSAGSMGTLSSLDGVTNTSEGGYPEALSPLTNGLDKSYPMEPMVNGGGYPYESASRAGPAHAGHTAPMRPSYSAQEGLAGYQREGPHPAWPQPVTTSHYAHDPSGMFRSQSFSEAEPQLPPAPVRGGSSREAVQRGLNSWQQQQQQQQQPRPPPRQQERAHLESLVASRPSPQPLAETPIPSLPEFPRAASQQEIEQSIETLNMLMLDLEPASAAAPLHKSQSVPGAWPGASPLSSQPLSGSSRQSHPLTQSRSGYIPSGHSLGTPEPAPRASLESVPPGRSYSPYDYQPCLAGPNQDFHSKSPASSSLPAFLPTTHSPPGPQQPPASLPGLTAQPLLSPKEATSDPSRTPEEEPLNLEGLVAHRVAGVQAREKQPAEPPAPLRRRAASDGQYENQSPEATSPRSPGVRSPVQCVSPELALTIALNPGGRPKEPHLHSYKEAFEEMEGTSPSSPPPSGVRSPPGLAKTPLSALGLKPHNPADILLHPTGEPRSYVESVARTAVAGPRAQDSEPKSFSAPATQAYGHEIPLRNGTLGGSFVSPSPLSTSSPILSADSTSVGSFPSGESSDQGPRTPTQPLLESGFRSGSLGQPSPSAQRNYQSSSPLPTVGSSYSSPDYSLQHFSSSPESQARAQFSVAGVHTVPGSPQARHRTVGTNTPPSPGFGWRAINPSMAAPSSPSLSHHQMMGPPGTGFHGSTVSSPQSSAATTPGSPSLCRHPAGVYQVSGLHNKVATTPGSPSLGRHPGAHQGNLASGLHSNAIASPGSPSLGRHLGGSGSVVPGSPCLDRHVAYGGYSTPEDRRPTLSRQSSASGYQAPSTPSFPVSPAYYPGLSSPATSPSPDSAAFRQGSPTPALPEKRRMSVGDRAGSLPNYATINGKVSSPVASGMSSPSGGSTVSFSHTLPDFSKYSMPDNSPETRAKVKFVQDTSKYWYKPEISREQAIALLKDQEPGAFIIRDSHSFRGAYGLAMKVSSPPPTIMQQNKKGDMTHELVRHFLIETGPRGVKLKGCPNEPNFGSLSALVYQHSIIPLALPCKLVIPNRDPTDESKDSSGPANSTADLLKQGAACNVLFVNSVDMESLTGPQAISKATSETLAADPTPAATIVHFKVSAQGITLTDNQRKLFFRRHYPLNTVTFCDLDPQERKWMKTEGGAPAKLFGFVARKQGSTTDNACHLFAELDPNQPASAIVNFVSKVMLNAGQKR
# [3] = target: T1, CAMK2d (Homo sapiens, UniProt Q13557); test: Radiometric HotSpot kinase assay; assay type: biochemical; settings: 100 μM, n = 3; remaining activity vs DMSO; read-out: Enzyme activity (%) CAMK2d
# T1 construct: purchased Reaction Biology
# Method: (§1) In brief, specific kinase/substrate pairs were mixed in a buffer containing 20 mM Hepes (pH 7.5), 10 mM MgCl2, 1 mM EGTA, 0.02% Brij35, 0.02 mg/ml BSA, 0.1 mM Na3VO4, 2 mM DTT, and 1% DMSO. […] After a 20-min incubation, ATP (cat. no. A7699; Sigma-Aldrich) and [γ-^33P] ATP (cat. no. NEG602H001MC; PerkinElmer) were added at a final total concentration of […].
# [4] = target: T2, CK2a (Homo sapiens, UniProt P68400); test: Radiometric HotSpot kinase assay; assay type: biochemical; settings: 100 μM, n = 3; remaining activity vs DMSO; read-out: Enzyme activity (%) CK2a
# T2 construct: purchased Reaction Biology
# Method: as §1
# [5] = target: T3, MST4/STK26 (Homo sapiens, UniProt Q9P289); test: Radiometric HotSpot kinase assay; assay type: biochemical; settings: 100 μM, n = 3; remaining activity vs DMSO; read-out: Enzyme activity (%) MST4/STK26
# T3 construct: purchased Reaction Biology
# Method: as §1
# [6] = target: T4, ERK1/MAPK3 (Homo sapiens, UniProt P27361); test: Radiometric HotSpot kinase assay; assay type: biochemical; settings: 100 μM, n = 3; remaining activity vs DMSO; read-out: Enzyme activity (%) ERK1/MAPK3
# T4 construct: purchased Reaction Biology
# Method: as §1
# [7] = target: T5, TNIK (Homo sapiens, UniProt Q9UKE5); test: Radiometric HotSpot kinase assay; assay type: biochemical
# T5 construct: purchased Reaction Biology
# T5 sequence (Q9UKE5 whole entry): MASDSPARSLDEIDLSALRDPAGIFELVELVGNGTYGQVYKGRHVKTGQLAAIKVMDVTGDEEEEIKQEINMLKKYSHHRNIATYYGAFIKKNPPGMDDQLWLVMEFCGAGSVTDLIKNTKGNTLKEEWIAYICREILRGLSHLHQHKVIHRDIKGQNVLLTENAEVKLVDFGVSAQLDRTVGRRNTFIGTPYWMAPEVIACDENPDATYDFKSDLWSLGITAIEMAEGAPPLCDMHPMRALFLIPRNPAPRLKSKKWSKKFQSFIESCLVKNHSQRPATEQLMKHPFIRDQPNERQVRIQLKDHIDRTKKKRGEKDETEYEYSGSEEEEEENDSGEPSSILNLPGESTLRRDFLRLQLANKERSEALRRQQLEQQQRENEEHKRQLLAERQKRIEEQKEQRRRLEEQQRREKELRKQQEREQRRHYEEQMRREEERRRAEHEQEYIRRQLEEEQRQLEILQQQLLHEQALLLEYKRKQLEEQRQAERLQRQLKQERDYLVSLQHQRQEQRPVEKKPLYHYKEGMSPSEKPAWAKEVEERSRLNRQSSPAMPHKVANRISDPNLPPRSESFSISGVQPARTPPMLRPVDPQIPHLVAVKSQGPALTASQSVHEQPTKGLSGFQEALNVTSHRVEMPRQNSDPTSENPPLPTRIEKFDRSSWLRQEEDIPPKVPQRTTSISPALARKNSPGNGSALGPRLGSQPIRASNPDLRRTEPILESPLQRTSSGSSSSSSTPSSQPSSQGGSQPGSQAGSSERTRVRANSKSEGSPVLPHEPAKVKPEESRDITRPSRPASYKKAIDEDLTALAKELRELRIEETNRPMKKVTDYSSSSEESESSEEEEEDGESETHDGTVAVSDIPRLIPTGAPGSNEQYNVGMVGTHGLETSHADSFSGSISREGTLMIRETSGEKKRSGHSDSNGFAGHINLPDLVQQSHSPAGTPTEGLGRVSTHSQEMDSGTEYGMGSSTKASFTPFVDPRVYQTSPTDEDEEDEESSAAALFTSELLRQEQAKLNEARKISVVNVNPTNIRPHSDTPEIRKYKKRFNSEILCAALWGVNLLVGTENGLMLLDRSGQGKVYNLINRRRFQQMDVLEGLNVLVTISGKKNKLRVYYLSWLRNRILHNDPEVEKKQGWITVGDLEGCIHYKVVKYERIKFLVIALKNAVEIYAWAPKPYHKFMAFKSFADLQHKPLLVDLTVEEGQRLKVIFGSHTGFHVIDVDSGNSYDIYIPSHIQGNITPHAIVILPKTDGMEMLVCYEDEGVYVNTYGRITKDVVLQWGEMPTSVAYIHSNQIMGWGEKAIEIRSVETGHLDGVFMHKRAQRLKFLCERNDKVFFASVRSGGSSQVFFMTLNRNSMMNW
# Method: as §1
# [8] = target: T6, CDK2 (Homo sapiens, UniProt P24941); test: Radiometric HotSpot kinase assay; assay type: biochemical; settings: n = 3, remaining activity vs DMSO, read-out: Enzyme activity (%) CDK2
# T6 construct: purchased Reaction Biology
# Method: as §1
# [9] = target: T7, CK1d (Homo sapiens, UniProt P48730); test: Radiometric HotSpot kinase assay; assay type: biochemical; settings: n = 3, remaining activity vs DMSO, read-out: Enzyme activity (%) CK1d
# T7 construct: purchased Reaction Biology
# Method: as §1
# [10] = target: T8, CDK7 (Homo sapiens, UniProt P50613); test: Radiometric HotSpot kinase assay; assay type: biochemical; settings: 100 μM, n = 3; remaining activity vs DMSO; read-out: Enzyme activity (%) CDK7
# T8 construct: purchased Reaction Biology
# Method: as §1
# [11] = target: T9, ERK2/MAPK1 (Homo sapiens, UniProt P28482); test: Radiometric HotSpot kinase assay; assay type: biochemical; settings: 100 μM, n = 3; remaining activity vs DMSO; read-out: Enzyme activity (%) ERK2/MAPK1
# T9 construct: purchased Reaction Biology
# Method: as §1
# [12] = target: SARS2 (Homo sapiens, UniProt Q9NP81); test: TPP in intact U2OS cells; assay type: binding
# SARS2, sequence (Q9NP81 35-518): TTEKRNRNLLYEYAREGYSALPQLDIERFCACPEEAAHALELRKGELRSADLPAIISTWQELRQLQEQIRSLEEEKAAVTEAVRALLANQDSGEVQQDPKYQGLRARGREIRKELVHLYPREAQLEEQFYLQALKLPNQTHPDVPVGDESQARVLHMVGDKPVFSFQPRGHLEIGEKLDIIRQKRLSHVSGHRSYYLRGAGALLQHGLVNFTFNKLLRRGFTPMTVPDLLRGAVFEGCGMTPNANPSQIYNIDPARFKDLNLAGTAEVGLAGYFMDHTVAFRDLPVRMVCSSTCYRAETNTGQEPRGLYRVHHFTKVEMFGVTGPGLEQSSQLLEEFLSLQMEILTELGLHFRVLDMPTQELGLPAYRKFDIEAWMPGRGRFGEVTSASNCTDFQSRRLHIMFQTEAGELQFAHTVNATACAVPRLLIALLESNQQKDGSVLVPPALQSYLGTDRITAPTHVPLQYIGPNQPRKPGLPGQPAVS
# [13] = test system: Synechococcus elongatus; test: Luminescence rhythm period assay in cyanobacteria; settings: 3, 8, 16 and 32 μM
# Method: The D730nm was maintained between 0.27 and 0.45 by dilution with fresh medium.
# Circadian period–altering compounds (dissolved in DMSO, final 0.5% DMSO) were then added in the air medium to reach the different desired concentrations. […] Images were generated from integrated photon counts over 25 min every 30 min using Metamorph software (Molecular Devices). […] Exported images were composed into image stacks and were quantified in a time series using a custom script in NIH ImageJ software, applying the “Multi Measure” plugin.
# [14] = target: RPL37 (Homo sapiens, UniProt P61927); test: TPP in intact U2OS cells; assay type: binding; settings: vs vehicle
# [15] = target: Rab GTPase-binding effector protein 1 (RABEP1) (Homo sapiens, UniProt Q15276); test: TPP in intact U2OS cells; settings: vs vehicle
# [16] = test system: Per2-dLuc U2OS cells; test: Circadian luminescence period assay, Per2-dLuc U2OS cells; assay type: cell-based, human; settings: 7 μM, mean ± SEM, control 24.2 ± […]
# Method: Per2-dLuc U2OS osteosarcoma and Bmal1-dLuc U2OS osteosarcoma reporter cell lines were gifts from Dr Andrew Liu, University of Memphis, USA ([Liu et al, 2008]). […] The cells were cultured at 37°C, 5% CO2 in a standard humidified incubator.
# [17] = target: DYNC1I2 (Homo sapiens, UniProt Q13409); test: TPP in intact U2OS cells; assay type: binding; settings: vs vehicle
# DYNC1I2, sequence (Q13409 whole entry): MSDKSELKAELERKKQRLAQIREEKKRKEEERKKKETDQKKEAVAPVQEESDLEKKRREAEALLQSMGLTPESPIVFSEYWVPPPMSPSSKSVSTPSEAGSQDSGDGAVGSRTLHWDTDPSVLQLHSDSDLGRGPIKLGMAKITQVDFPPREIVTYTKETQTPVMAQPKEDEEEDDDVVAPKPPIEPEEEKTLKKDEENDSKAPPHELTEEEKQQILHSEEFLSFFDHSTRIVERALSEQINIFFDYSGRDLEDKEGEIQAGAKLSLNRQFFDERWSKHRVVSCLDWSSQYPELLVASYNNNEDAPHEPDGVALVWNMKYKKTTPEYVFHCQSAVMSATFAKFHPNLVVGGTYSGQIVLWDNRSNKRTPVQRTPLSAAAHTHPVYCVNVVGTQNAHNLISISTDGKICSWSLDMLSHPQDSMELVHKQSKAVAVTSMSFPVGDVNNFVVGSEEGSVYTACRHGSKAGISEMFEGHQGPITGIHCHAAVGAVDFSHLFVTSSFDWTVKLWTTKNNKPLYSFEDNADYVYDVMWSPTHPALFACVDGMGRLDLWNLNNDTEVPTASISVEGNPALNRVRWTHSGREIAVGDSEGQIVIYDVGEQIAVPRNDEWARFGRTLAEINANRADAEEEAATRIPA
# [18] = target: CYCS (Homo sapiens, UniProt P99999); test: TPP in intact U2OS cells; assay type: binding; settings: vs vehicle
# [19] = target: Cleavage stimulation factor subunit 2 tau variant (CSTF2T) (Homo sapiens, UniProt Q9H0L4); test: TPP in intact U2OS cells; assay type: binding; settings: vs vehicle
# [20] = target: PSMG4 (Homo sapiens, UniProt Q5JS54); test: TPP in intact U2OS cells; assay type: binding; settings: vs vehicle
# PSMG4, sequence (Q5JS54 whole entry): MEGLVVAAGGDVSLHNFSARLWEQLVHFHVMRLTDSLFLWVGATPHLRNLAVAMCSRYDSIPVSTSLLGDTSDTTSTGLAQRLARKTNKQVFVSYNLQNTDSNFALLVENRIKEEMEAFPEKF
# [21] = target: NFU1 (Homo sapiens, UniProt Q9UMS0); test: TPP in intact U2OS cells; assay type: binding; settings: vs vehicle
# F-box protein 21 (FBX21), sequence (O94952 whole entry): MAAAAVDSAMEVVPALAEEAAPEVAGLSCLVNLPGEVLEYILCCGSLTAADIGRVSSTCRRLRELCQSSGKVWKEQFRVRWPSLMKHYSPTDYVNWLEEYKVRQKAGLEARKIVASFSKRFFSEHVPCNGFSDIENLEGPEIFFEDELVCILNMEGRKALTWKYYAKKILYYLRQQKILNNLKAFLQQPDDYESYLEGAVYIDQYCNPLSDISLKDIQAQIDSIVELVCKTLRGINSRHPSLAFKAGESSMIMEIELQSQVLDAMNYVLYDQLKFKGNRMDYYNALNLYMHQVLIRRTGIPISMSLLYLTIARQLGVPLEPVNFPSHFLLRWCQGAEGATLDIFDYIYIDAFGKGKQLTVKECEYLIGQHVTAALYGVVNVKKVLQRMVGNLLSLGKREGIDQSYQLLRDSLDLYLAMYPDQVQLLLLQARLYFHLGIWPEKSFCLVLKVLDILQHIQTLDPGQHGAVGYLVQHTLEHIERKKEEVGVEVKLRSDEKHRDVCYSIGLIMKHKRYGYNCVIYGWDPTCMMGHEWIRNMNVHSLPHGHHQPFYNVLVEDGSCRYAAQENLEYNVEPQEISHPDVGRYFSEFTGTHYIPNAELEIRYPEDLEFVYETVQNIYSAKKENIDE
smiles,measurement,setting,value
Oc1c2ccccc2c2c3c(cccc13)N=N2 [SP600125],ΔTm at 10 µM,"[1]; Rep1, read-out: + Tm shift FBX21, Rep1",3.2 °C
same,ΔTm at 10 µM,"[1]; Rep2, read-out: + Tm shift FBX21, Rep2",2.3 °C
same,ΔTm at 10 µM,"[2]; Rep1, read-out: + Tm shift TNS1, Rep1",1.1 °C
same,ΔTm at 10 µM,"[2]; Rep2, read-out: + Tm shift TNS1, Rep2",1.6 °C
same,remaining activity at 100 µM,[3],14.7%
same,remaining activity at 100 µM,[4],5.7%
same,remaining activity at 100 µM,[5],14.4%
same,remaining activity at 100 µM,[6],76.7%
same,remaining activity at 100 µM,"[7]; 100 μM, n = 3, remaining activity vs DMSO, read-out: Enzyme activity (%) TNIK",1.1%
same,IC50,"[7]; 10-dose, threefold serial dilution starting at 100 μM",< 500 nM
same,remaining activity at 100 µM,[8],5.3%
same,remaining activity at 100 µM,[9],0.9%
same,remaining activity at 100 µM,[10],13.2%
same,remaining activity at 100 µM,[11],70.7%
same,ΔTm at 10 µM,"[12]; read-out: + Tm shift SARS2, Rep1",1.2 °C
same,ΔTm at 10 µM,"[12]; read-out: + Tm shift SARS2, Rep2",1.3 °C
same,Effect on period length in cyanobacteria,[13],do not affect period length
same,ΔTm at 10 µM,"[14]; Rep1, read-out: + Tm shift RPL37, Rep1",2.9 °C
same,ΔTm at 10 µM,"[14]; Rep2, read-out: + Tm shift RPL37, Rep2",2.1 °C
same,ΔTm at 10 µM,"[15]; Rep1, read-out: + Tm shift RABEP1, Rep1",3.5 °C
same,ΔTm at 10 µM,"[15]; Rep2, read-out: + Tm shift RABEP1, Rep2",4.4 °C
same,Circadian period length,[16],28.6 ± 0.1 h
same,ΔTm at 10 µM,"[17]; Rep1, read-out: + Tm shift DYNC1I2, Rep1",2.5 °C
same,ΔTm at 10 µM,"[17]; Rep2, read-out: + Tm shift DYNC1I2, Rep2",0.8 °C
same,ΔTm at 10 µM,"[18]; Rep1, read-out: + Tm shift CYCS, Rep1",1 °C
same,ΔTm at 10 µM,"[18]; Rep2, read-out: + Tm shift CYCS, Rep2",1 °C
same,ΔTm at 10 µM,"[19]; Rep1, read-out: + Tm shift CSTF2T, Rep1",1.3 °C
same,ΔTm at 10 µM,"[19]; Rep2, read-out: + Tm shift CSTF2T, Rep2",1.8 °C
same,ΔTm at 10 µM,"[20]; Rep1, read-out: + Tm shift PSMG4, Rep1",3.4 °C
same,ΔTm at 10 µM,"[20]; Rep2, read-out: + Tm shift PSMG4, Rep2",3.5 °C
same,ΔTm at 10 µM,"[21]; Rep1, read-out: + Tm shift NFU1, Rep1",1.3 °C
same,ΔTm at 10 µM,"[21]; Rep2, read-out: + Tm shift NFU1, Rep2",1.2 °C
